From PubChem BioAssay (NCI)
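Interpolation was linear, between the two tested concentrations surrounding the appropriate level; five concentrations were tested over 48 hours in 96-well plates. GI50 is the concentration that inhibits growth by half. TGI: total growth inhibition.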

Experiments:
Experiment in all cases: NCI anticancer screen, dose series, 48 h
HT29 colon = test system: HT29 colon
CCRF-CEM leukemia = test system: CCRF-CEM leukemia
UO-31 renal = test system: UO-31 renal
HOP-92 NSCLC = test system: HOP-92 NSCLC
UACC-62 melanoma = test system: UACC-62 melanoma
SK-MEL-5 melanoma = test system: SK-MEL-5 melanoma
EKVX NSCLC = test system: EKVX NSCLC
MDA-N = test system: MDA-N
IGROV1 ovarian = test system: IGROV1 ovarian
NCI-H23 lung = test system: NCI-H23 lung

Structure (SMILES)	TGI (HT29 colon)	TGI (CCRF-CEM leukemia)	TGI (UO-31 renal)	TGI (HOP-92 NSCLC)	TGI (UACC-62 melanoma)	TGI (SK-MEL-5 melanoma)	TGI (EKVX NSCLC)	TGI (MDA-N)	TGI (IGROV1 ovarian)	TGI (NCI-H23 lung)	GI50 (HT29 colon)	GI50 (CCRF-CEM leukemia)	GI50 (UO-31 renal)	GI50 (HOP-92 NSCLC)	GI50 (UACC-62 melanoma)	GI50 (SK-MEL-5 melanoma)	GI50 (EKVX NSCLC)	GI50 (NCI-H23 lung)	GI50 (IGROV1 ovarian)
O=[N+]([O-])c1cc(Cl)ccc1S(=O)(=O)c1cc(Cl)cc2c1NCCC2	> 100 µM	> 100 µM	> 100 µM	> 100 µM	85.8 µM	43.7 µM	> 100 µM	> 100 µM	> 100 µM	–	–	–	–	–	–	–	–	–	–
Cn1c(=O)c2[nH]c(-n3nc(-c4ccccc4)cc3N)nc2n(C)c1=O	> 100 µM	> 100 µM	> 100 µM	74.9 µM	27 µM	61.9 µM	> 100 µM	> 100 µM	37.1 µM	–	–	–	–	–	–	–	–	–	–
Oc1ccccc1C=Nc1ccccc1N=Cc1ccccc1O	> 100 µM	> 100 µM	–	–	–	> 100 µM	> 100 µM	–	> 100 µM	> 100 µM	–	–	–	–	–	–	–	–	–
COC1CCC(n2c([C@@H]3CCCC(=O)N3c3ccc(F)c(F)c3)nc3cc(-c4c(C)noc4C)ccc32)CC1 (some centres undefined)	25.2 µM	57.7 µM	14.5 µM	14.2 µM	16.1 µM	18.6 µM	> 100 µM	–	25.4 µM	40.5 µM	2.54 µM	4.66 µM	1.64 µM	2.04 µM	2.52 µM	5.81 µM	3.97 µM	13.3 µM	4.61 µM
CC(C)C[C@H](NC(=O)[C@H](CCc1ccccc1)NC(=O)c1ccc2ccccc2n1)B(O)O	0.144 µM	–	0.588 µM	0.28 µM	1.2 µM	0.647 µM	3.27 µM	–	0.972 µM	0.338 µM	–	–	–	–	–	–	–	–	–
CC1(CO)C(=O)OC12CCCCC2 (centres undefined)	> 100 µM	> 100 µM	> 100 µM	> 100 µM	> 100 µM	–	> 100 µM	–	> 100 µM	> 100 µM	–	–	–	–	–	–	–	–	–
COc1c(Cl)c(Cl)c(OC)c2c1C(=O)C=CC2=O	87.2 µM	53.5 µM	31.7 µM	28.8 µM	30.4 µM	> 100 µM	31.8 µM	–	56.9 µM	> 100 µM	–	–	–	–	–	–	–	–	–
O=[N+]([O-])c1ccc(Cl)cc1N/N=C/c1cccs1	> 100 µM	> 100 µM	> 100 µM	–	> 100 µM	> 100 µM	> 100 µM	> 100 µM	> 100 µM	> 100 µM	–	–	–	–	–	–	–	–	–
O=C(c1ccccc1)n1[nH]c(=O)n(-c2ccc(Cl)cc2)c1=O	> 100 µM	> 100 µM	> 100 µM	–	> 100 µM	> 100 µM	> 100 µM	> 100 µM	> 100 µM	> 100 µM	–	–	–	–	–	–	–	–	–
NC(=S)N/N=C(\C(=O)Nc1ccc(Cl)c(Cl)c1)C1=NN(c2ccccc2)C(c2cccc([N+](=O)[O-])c2)CC1=O (centres undefined)	34.8 µM	62 µM	> 100 µM	–	> 100 µM	> 100 µM	> 100 µM	–	72.6 µM	46.9 µM	–	–	–	–	–	–	–	–	–
NC(CNc1ccc(O)cc1)C(=O)O (centres undefined)	> 100 µM	> 100 µM	> 100 µM	> 100 µM	49.4 µM	> 100 µM	> 100 µM	–	–	–	–	–	–	–	–	–	–	–	–
C/C(=N\NC(=O)N/N=C(\C)c1ccccn1)c1ccccn1	> 100 µM	> 100 µM	> 100 µM	> 100 µM	> 100 µM	> 47.3 µM	> 100 µM	> 100 µM	> 100 µM	–	–	–	–	–	–	–	–	–	–
O=Cc1cc(O)c(O)c(/C=N/n2c3ccccc3c3ccccc32)c1	48.1 µM	9.87 µM	26.1 µM	9.23 µM	22.9 µM	–	43.5 µM	–	–	34.7 µM	–	–	–	–	–	–	–	–	–
N#CI1OC(C(F)(F)F)(C(F)(F)F)c2ccccc21	40.8 µM	> 100 µM	28.6 µM	42.5 µM	38.8 µM	33.8 µM	30.1 µM	–	31.8 µM	36 µM	–	–	–	–	–	–	–	–	–
COc1ccc(CCC2NCCc3cc(OC)c(OC)cc32)cc1 (centres undefined)	> 100 µM	> 100 µM	> 100 µM	–	–	> 100 µM	> 100 µM	–	–	> 100 µM	–	–	–	–	–	–	–	–	–
CCOC(=O)C12C(=O)CCN1CCc1ccccc1C2C (centres undefined)	> 100 µM	–	> 100 µM	> 100 µM	> 100 µM	> 100 µM	> 100 µM	> 100 µM	> 100 µM	> 100 µM	–	–	–	–	–	–	–	–	–
O=C1NC(=S)NC(=O)C1=Cc1ccc2ccccc2n1	> 100 µM	> 100 µM	> 100 µM	> 100 µM	> 100 µM	> 100 µM	> 100 µM	–	> 100 µM	> 100 µM	–	–	–	–	–	–	–	–	–
CCOC(=O)CCC(NC(=O)c1ccc(NCc2ccc3nc(-c4ccccc4)c(Cl)nc3c2)c2ccccc12)C(=O)OCC (centres undefined)	> 100 µM	–	> 100 µM	> 100 µM	> 100 µM	> 100 µM	> 100 µM	> 100 µM	–	> 100 µM	–	–	–	–	–	–	–	–	–
CCOC(=O)CN(Cc1ccccc1)Cc1c(C(=O)c2ccccc2)c2ccccc2n1C(=O)c1ccccc1	> 100 µM	> 100 µM	> 100 µM	> 100 µM	> 100 µM	> 100 µM	> 100 µM	–	> 100 µM	> 100 µM	–	–	–	–	–	–	–	–	–
Cc1nc2sccn2c1C(=O)OCCOCCOCCOCCOC(=O)c1c(C)nc2sccn12	> 100 µM	–	> 100 µM	> 100 µM	> 100 µM	35.5 µM	> 100 µM	> 100 µM	> 100 µM	> 100 µM	–	–	–	–	–	–	–	–	–
CCc1cc2c(oc3c4ccccc4ccc23)c(=O)[nH]1	> 10 µM	> 10 µM	> 10 µM	> 10 µM	> 10 µM	–	> 10 µM	> 10 µM	> 10 µM	> 10 µM	–	–	–	–	–	–	–	–	–
Cc1ccc(Nc2ccc(Nc3ccc(C)cc3S(=O)(=O)O)c3c2C(=O)c2ccccc2C3=O)c(S(=O)(=O)O)c1	–	> 100 µM	> 100 µM	–	> 100 µM	> 100 µM	> 100 µM	–	> 100 µM	–	–	–	–	–	–	–	–	–	–
Cc1ccc(N(C(=O)CC(=O)N2N=C(c3ccccc3)C(N=Nc3ccc([N+](=O)[O-])cc3)C2=O)C(=O)c2ccc(Cl)cc2)cc1 (centres undefined)	> 53 µM	> 30.9 µM	> 100 µM	56.5 µM	> 100 µM	84.8 µM	> 100 µM	–	45.9 µM	28.2 µM	–	–	–	–	–	–	–	–	–
